Key:
Format in all cases: physicochemical
[1] = Infrared fluorescence image of thick and thin layers of ICG with and without Ag colloid; conditions: thick (1 cm) layers, 0.250 mg/mL ICG in HAS with or without 4.684 mg/mL Ag colloid, 805 nm
Description: FIG. 7 is an infrared fluorescence image comparing the fluorescence enhancement effect of silver colloid in 0.05 mg/mL ICG solutions; samples in the left-hand side contain no colloid, while those in the right-hand side contain colloid; samples at the top are in 1-cm thick tubes, while those at the bottom are 100 microns thick;
FIG. 8 is an infrared fluorescence image of the samples of FIG. 7 showing reflection of the 805-nm wavelength light used to stimulate fluorescence; no barrier filter was placed in front of the CCD camera in this case;
The disparity between fluorescence enhancement reported in the experiments made using glass surfaces on which the dye/colloid conjugates were bound with amino groups (30-fold) and those observed in the in vivo angiograms (2- to 3-fold) apparently was due to the fact that the colloid fluorescence-enhancement effect is manifest in very thin layers of the dye/suspension and suppressed in thick ones. In this figure, the thick samples are at the top, and the thin ones at the bottom; 0.250 mg/mL ICG in HAS is on the left, and 0.250 mg/mL ICG in HAS with 4.684 mg/mL Ag colloid on the right. The array of samples was uniformly illuminated with 805-nm wavelength light, and the ICG fluorescence image was captured. […]

[2] = Optimum ICG concentration for fluorescence (concentration quenching)
Text: (1) Although many fluorescent dyes, such as ICG dye, do bind to the erythrocyte outer cell membrane, binding is weak and non-covalent, and regardless of the dye concentration and conjugation time, the maximum fluorescence brightness that can be achieved is considerably less than optimum (see FIG. 1). […] (2) Exposure to fluorescence excitation energy for diagnostic purposes must not exceed the safe maximum permissible exposure level for the sensory retina. Since ICG dye is a fairly weak emitter of fluorescence, care must be taken to ensure that the amount of ICG present post-loading is optimal, resulting in maximum fluorescence intensity possible at a given safe excitation energy level. […] Moreover, since ICG is subject to concentration fluorescence quenching—even when inside erythrocytes—the amount of loaded dye must be controlled: too much or too little will not produce the maximum fluorescence. […] Achieving optimal dye concentration is accomplished by controlling the amount of dye in the solution during dialysis once the pores in the cell membranes open; experimentation has determined the optimum amount to be approximately 1.0 μmol/mL dialysed cell-solution (see FIG. 2). […] This also has the advantage of preventing plasma dye-staining and the associated reduction of contrast between cell fluorescence and background brightness once the cells are re-injected. […]

[3] = Near-infrared fluorescence micrographs (40×) of ICG-loaded vs ICG-stained erythrocytes: cell brightness; conditions: FIG. 1C, plasma exposed 20 min to stained erythrocytes
Description: FIGS. 1A-1D are near-infrared fluorescence micrographs at 40× magnification of erythrocytes, comparing the brightness of cells “stained” with ICG (A—stained in 1 mM ICG solution for 30 min. and B—stained in 2 mM ICG solution for 60 min. to cells into which ICG has been loaded through pores in their membranes; C—stained plasma resulting from exposure for 20 min. to the stained erythrocytes from A; D—dialysed in 1 mM ICG solution for 30 min.);
(1) Although many fluorescent dyes, such as ICG dye, do bind to the erythrocyte outer cell membrane, binding is weak and non-covalent, and regardless of the dye concentration and conjugation time, the maximum fluorescence brightness that can be achieved is considerably less than optimum (see FIG. 1). […] (2) Exposure to fluorescence excitation energy for diagnostic purposes must not exceed the safe maximum permissible exposure level for the sensory retina. Since ICG dye is a fairly weak emitter of fluorescence, care must be taken to ensure that the amount of ICG present post-loading is optimal, resulting in maximum fluorescence intensity possible at a given safe excitation energy level. […] Moreover, since ICG is subject to concentration fluorescence quenching—even when inside erythrocytes—the amount of loaded dye must be controlled: too much or too little will not produce the maximum fluorescence. […]

- fluorescence brightness, thick samples [1]: significantly brighter
- optimum concentration of dye molecules in the loaded cells; above that level fluorescence quenching occurs ([2]; ICG inserted into S-IEs): about 0.03 mg/mL
SMILES: CC1(C)C(/C=C/C=C/C=C/C=C2\N(CCCCS(=O)(=O)O)c3ccc4ccccc4c3C2(C)C)=[N+](CCCCS(=O)(=O)[O-])c2ccc3ccccc3c21 [ICG, indocyanine green]
- optimum amount of dye in the solution during dialysis ([2]; for maximum fluorescence of loaded erythrocytes): approximately 1.0 μmol/mL dialysed cell-solution
- affinity of ICG dye molecules: plasma proteins vs erythrocyte outer membrane [3]: greater for plasma proteins than for the erythrocyte outer membrane

Source: US10041042B2, “Methods for production and use of substance-loaded erythrocytes (S-IEs) for observation and treatment of microvascular hemodynamics” (Novadaq Technologies ULC, priority 2008, dated 2018)
